From US20090233960A1, “Kinase Inhibitors” (Devgen NV, priority 2005, published 2009)
pIC50: −log10 of the molar value. “Also recorded” adds a separate entry of the source.

Assays:
[1] = biological target: T1, human ROCKI/ROCKII mix (Homo sapiens, UniProt O75116); assay: ROCK inhibition, fluorescence polarization (FP) IMAP assay; format: biochemical; settings: 10 μM ATP
T1 construct: purchased Upstate Biotechnology 14451
Protocol: The compounds of the invention were tested for inhibition of human ROCKI/ROCKII mix.
The inhibition assays were performed with a fluorescence polarization (FP) assay using the commercially available ROCK IMAP Kit from Molecular Devices (Product ID. No. R8093) essentially in accordance with the protocol supplied by the manufacturer. The S6 ribosomal protein-derived substrate used was (Fl)-[…], also obtained from Molecular Devices (Product ID No. R7184). The enzyme mix ROCKI/ROCKII was obtained from Upstate Biotechnology (Product ID No 14451).
In summary, all compounds were screened in the wells of a 384 well plate for enzymatic inhibition with concentrations varying from 100 μM to 0.3 nM using a stepwise three (or two)-fold dilution.
To perform the assay, 1 μl of a solution of the compound to be tested in DMSO (at each concentration) was added to 2 μl of a solution of the enzyme in 10 mM Tris-HCl, 10 mM MgCl2, 0.1% BSA, 0.05% NaN3, pH 7,2. The final concentration of the enzyme was 2.6 nM.
After incubating for 30 minutes at room temperature, 2 μl of a mixture of ATP and the protein substrate in 10 mM Tris-HCl, 10 mM MgCl2, 0.1% BSA, 0.05% NaN3, pH 7.2 was added. The final concentration of the ATP was 10 μM and final concentration of protein substrate was 0.2 μM.
After incubating for 60 minutes at room temperature, 12 μl of the IMAP Binding Solution (mix of the IMAP Binding Buffer A (1×) and the IMAP Binding Reagent (from the ROCK IMAP kit)) was added.
The mixture thus obtained (total volume: 17 μl) was incubated for 60 minutes at room temperature, upon which the fluorescence polarization was measured using an automated plate reader (Perkin Elmer, Model Envision 2100-0010 HTS) with FP filters: excitation filter FITC FP 480 and emission filters FITC FP P-pol 535 and FITC FP S-pol 535 (Perkin-Elmer). The results were fitted to a curve using the XL-Fit algorithm and IC50 values were calculated for each fitted curve, again using the XL-Fit algorithm.

[2] = system: spontaneous hypertensive rats (SHRs); assay: Activity on hypertension in spontaneous hypertensive rats (SAP and heart rate); format: in vivo, rat; settings: SHR, 10 mg/kg, single oral dose
Protocol: The efficiency of compounds of the invention to reduce and/or treat hypertension in an acute model was evaluated using spontaneous hypertensive rats (SHRs).
Compounds were administered as one single dose to SHR. Systolic arterial pressure (SAP) and heart rate were recorded before (−1 hr) and 1, 3, 5, 7, and 24 hours after oral administration of vehicle or test compound.
A reduction in SAP by 10 percent or more (>10%), or a decrease in heart rate by 20 percent or more (>20%), relative to baseline was considered significant.

T1 sequence (O75116 11-552 limits assumed): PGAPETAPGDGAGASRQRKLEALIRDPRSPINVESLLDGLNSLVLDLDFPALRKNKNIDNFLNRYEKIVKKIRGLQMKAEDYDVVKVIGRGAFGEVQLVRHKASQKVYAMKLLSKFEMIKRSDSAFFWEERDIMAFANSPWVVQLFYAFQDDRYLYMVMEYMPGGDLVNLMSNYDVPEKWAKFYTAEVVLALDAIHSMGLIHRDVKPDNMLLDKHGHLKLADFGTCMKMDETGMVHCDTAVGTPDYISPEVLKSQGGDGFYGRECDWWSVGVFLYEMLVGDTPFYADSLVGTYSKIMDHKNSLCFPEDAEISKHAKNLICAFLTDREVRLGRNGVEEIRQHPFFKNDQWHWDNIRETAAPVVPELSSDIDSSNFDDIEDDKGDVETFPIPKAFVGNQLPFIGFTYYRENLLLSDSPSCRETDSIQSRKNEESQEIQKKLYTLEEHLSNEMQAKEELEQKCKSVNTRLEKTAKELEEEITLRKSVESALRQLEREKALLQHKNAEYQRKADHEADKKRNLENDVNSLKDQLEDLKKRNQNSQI

| pIC50 [1] | SMILES | hypotensive response (systolic arterial pressure) [2] |
| --- | --- | --- |
| 6.30 to 7.30 | CC(N)c1ccc(C(=O)Nc2ccncc2)cc1NC(=O)c1ccccc1 (stereo not drawn) [Compound 17, 4-(1-amino-ethyl)-3-benzoylamino-N-pyridin-4-yl-benzamide] |  |
| 6.30 to 7.30 | CC(N)c1ccc(C(=O)Nc2ccncc2)cc1NC(=O)c1ccco1 (stereo not drawn) [Compound 18, furan-2-carboxylic acid [2-(1-amino-ethyl)-5-(pyridin-4-ylcarbamoyl)-phenyl]-amide] |  |
| > 7.30 | COc1cccc(C(=O)Nc2cc(C(=O)Nc3ccncc3)ccc2C(C)N)c1 (stereo not drawn) [Compound 19, 4-(1-amino-ethyl)-3-(3-methoxy-benzoylamino)-N-pyridin-4-yl-benzamide] |  |
| 6.30 to 7.30 | CC(N)c1ccc(C(=O)Nc2ccncc2)cc1NC(=O)c1cccc(Cl)c1 (stereo not drawn) [Compound 20] |  |
| > 7.30 | COc1ccc(C(=O)Nc2cc(C(=O)Nc3ccncc3)ccc2C(C)N)cc1 (stereo not drawn) [Compound 21, 4-(1-Amino-ethyl)-3-(4-methoxy-benzoylamino)-N-pyridin-4-yl-benzamide] |  |
| 6.30 to 7.30 | CC(N)c1ccc(C(=O)Nc2ccncc2)cc1NC(=O)c1ccc(Cl)cc1 (stereo not drawn) [Compound 22, 4-(1-Amino-ethyl)-3-(4-chloro-benzoylamino)-N-pyridin-4-yl-benzamide] |  |
| > 7.30 | CC(N)c1ccc(C(=O)Nc2ccncc2)cc1-c1cccc(Cl)c1 (stereo not drawn) [Compound 24, 6-(1-aminoethyl)-3′-chloro-N-pyridin-4-ylbiphenyl-3-carboxamide] |  |
| > 7.30 | CC(N)c1ccc(C(=O)Nc2ccncc2)cc1-c1ccc(F)cc1 (stereo not drawn) [Compound 26, 6-(1-aminoethyl)-4′-fluoro-N-pyridin-4-ylbiphenyl-3-carboxamide] |  |
| > 7.30 | CC(N)c1ccc(C(=O)Nc2ccncc2)cc1-c1ccc2ccccc2c1 (stereo not drawn) [Compound 32, 4-(1-aminoethyl)-3-(2-naphthyl)-N-pyridin-4-ylbenzamide] |  |
| > 7.30 | C[C@@H](N)c1ccc(C(=O)Nc2ccncc2)cc1-c1cccs1 [Compound 103, 4-((R)-1-Amino-ethyl)-N-pyridin-4-yl-3-thiophen-2-yl-benzamide] |  |
| 6.30 to 7.30 | C[C@H](N)c1ccc(C(=O)Nc2ccncc2)cc1-c1cccs1 [Compound 104, 4-((S)-1-Amino-ethyl)-N-pyridin-4-yl-3-thiophen-2-yl-benzamide] |  |

Continued, compound first:

| SMILES | pIC50 [1] | hypotensive response (systolic arterial pressure) [2] |
| --- | --- | --- |
| CC(N)c1ccc(C(=O)Nc2ccncc2)cc1O (stereo not drawn) [Compound 1, 4-(1-amino-ethyl)-3-hydroxy-N-pyridin-4-yl-benzamide] | 5.30 to 6.30 |  |
| CC(N)c1ccc(C(=O)Nc2ccncc2)cc1[N+](=O)[O-] (stereo not drawn) [Compound 2, 4-(1-amino-ethyl)-3-nitro-N-pyridin-4-yl-benzamide] | 6.30 to 7.30 |  |
| CC(N)c1ccc(C(=O)Nc2ccncc2)cc1N (stereo not drawn) [Compound 3, 3-amino-4-(1-amino-ethyl)-N-pyridin-4-yl-benzamide] | 5.30 to 6.30 |  |
| CC(N)c1ccc(C(=O)Nc2ccncc2)cc1-c1ccc(Cl)cc1 (stereo not drawn) [Compound 4, 6-(1-amino-ethyl)-4′-chloro-biphenyl-3-carboxylic acid pyridin-4-ylamide] | > 7.30 |  |
| CC(N)c1ccc(C(=O)Nc2ccncc2)cc1-c1cccs1 (stereo not drawn) [Compound 5, 4-(1-amino-ethyl)-N-pyridin-4-yl-3-thiophen-2-yl-benzamide] | > 7.30 |  |
| COc1ccc(-c2cc(C(=O)Nc3ccncc3)ccc2C(C)N)cc1 (stereo not drawn) [Compound 6, 6-(1-amino-ethyl)-4′-methoxy-biphenyl-3-carboxylic acid pyridin-4-ylamide] | 6.30 to 7.30 |  |
| CC(N)c1ccc(C(=O)Nc2ccncc2)cc1-c1ccoc1 (stereo not drawn) [Compound 7, 4-(1-amino-ethyl)-3-furan-3-yl-N-pyridin-4-yl-benzamide] | 6.30 to 7.30 |  |
| CC(N)c1ccc(C(=O)Nc2ccncc2)cc1OCCO (stereo not drawn) [Compound 8, 4-(1-amino-ethyl)-3-(2-hydroxy-ethoxy)-N-pyridin-4-yl-benzamide] | 5.30 to 6.30 |  |
| CC(N)c1ccc(C(=O)Nc2ccncc2)cc1OCCCO (stereo not drawn) [Compound 9, 4-(1-amino-ethyl)-3-(3-hydroxy-propoxy)-N-pyridin-4-yl-benzamide] | 5.30 to 6.30 |  |
| CC(N)c1ccc(C(=O)Nc2ccncc2)cc1OCCN (stereo not drawn) [Compound 10, 3-(2-amino-ethoxy)-4-(1-amino-ethyl)-N-pyridin-4-yl-benzamide] | 5.30 to 6.30 |  |
| CC(N)c1ccc(C(=O)Nc2ccncc2)cc1OCCCN (stereo not drawn) [Compound 11, 4-(1-amino-ethyl)-3-(3-amino-propoxy)-N-pyridin-4-yl-benzamide] | 5.30 to 6.30 |  |
| CC(N)c1ccc(C(=O)Nc2ccncc2)cc1OCc1ccccc1 (stereo not drawn) [Compound 12, 4-(1-amino-ethyl)-3-benzyloxy-N-pyridin-4-yl-benzamide] | 6.30 to 7.30 |  |
| CC(N)c1ccc(C(=O)Nc2ccncc2)cc1NC(=S)Nc1ccccc1 (stereo not drawn) [Compound 13, 4-(1-amino-ethyl)-3-(3-phenyl-thioureido)-N-pyridin-4-yl-benzamide] | 6.30 to 7.30 |  |
| CC(N)c1ccc(C(=O)Nc2ccncc2)cc1NC(=O)Nc1ccccc1 (stereo not drawn) [Compound 14, 4-(1-amino-ethyl)-3-(3-phenyl-ureido)-N-pyridin-4-yl-benzamide] | 6.30 to 7.30 |  |
| CC(N)c1ccc(C(=O)Nc2ccncc2)cc1NCc1ccco1 (stereo not drawn) [Compound 16, 4-(1-amino-ethyl)-3-[(furan-2-ylmethyl)-amino]-N-pyridin-4-yl-benzamide] | 6.30 to 7.30 |  |
| C[C@@H](N)[C@H]1CC[C@H](C(=O)Nc2ccncc2)CC1 [Compound Y-27632] |  | not significant; also recorded: completely inactive |
